Source: patent publication US20230000808A1, “COMPOSITIONS AND METHODS EXCLUDING OR WITH REDUCED GLUTAMINE FOR THE TREATMENT OF HEMOGLOBINOPATHIES AND THALASSEMIAS” (AXCELLA HEALTH INC., priority 2019, published 2023)

What was measured:
IL-6 [1] = assay: Secreted IL-6 in HLMVEC treated with TNF-α (FirePlex); type: cell-based, human; conditions: HLMVEC + 0.5 ng/mL TNF-α, 24 h; amino acids 20x HMDB, Nac/Cit/Car 5 mM as bracketed
Experimental: (§1) Primary Human Lung Microvascular Endothelial Cells (HLMVEC; Lonza) were seeded at 6,000 cells per well in Endothelial Cell Growth Basal Medium-2 (Lonza) supplemented with Fetal Bovine Serum (FBS; Lonza), human EGF (Lonza), human VEGF (Lonza), R3-Insulin-like Growth Factor-1 (Lonza), ascorbic acid (Lonza), hydrocortisone (Lonza), human FGF-beta (Lonza), and gentamicin/amphotericin-b (Lonza) in a 96-well plate (Thermo Fisher). The cells were incubated for 45 minutes at room temperature, then incubated overnight at 37° C./5% CO2.
(§2) Following overnight incubation, cell were washed once with 150 μL of Dulbecco's phosphate buffered saline (DPBS; Gibco), and then treated with Endothelial Basal Medium MCB-131 (amino acid, glucose, sodium pyruvate, and phenol red free; US Biologicals) containing a defined custom amino acid concentration based on physiological concentrations in blood of patients with SCD (thus recapitulating observed metabolic imbalances such as the depletion of certain essential amino acids including arginine and aspartate and enrichment of certain non-essential amino acids including glutamate and asparagine), dialyzed FBS (Hyclone), human EGF (Lonza), human VEGF (Lonza), R3-Insulin-like Growth Factor-1 (Lonza), ascorbic acid (Lonza), hydrocortisone (Lonza), human FGF-beta (Lonza), and gentamicin/amphotericin-b (Lonza), glucose, 10 mM HEPES, sodium pyruvate, and sodium bicarbonate supplemented with one of the following: • a. PBS (vehicle control), • b. 0.5 ng/mL Tumor Necrosis Factor alpha (TNFα) and PBS, or; • c. 0.5 ng/mL TNF-α and amino acid treatments at 20× mean physiological concentrations in plasma based on values published in the Human Metabolome Database (HMDB) in PBS.
Supernatants were analyzed for IL-6 concentrations using a Human Cytokines FirePlex-HT Panel 1 kit (abcam) according to the manufacturer-supplied instructions. Particles were imaged on a high content imager (Molecular Devices), and results were interpolated from a standard curve with FirePlex Analysis Workbench Software (abcam) according manufacturer's recommendations.

VCAM-1 = VCAM-1 cell integrated intensity in HLMVEC treated with TNF-α (immunofluorescence); type: cell-based, human; conditions: for VCAM-1 Cell Integrated Intensity Median: HLMVEC + 0.5 ng/mL TNF-α, 24 h, amino acids 20x HMDB, Nac/Cit/Car 5 mM as bracketed
Experimental: as §1, §2
(§3) After 24 hours of treatment, cells were washed once with 150 μL of DPBS (Gibco), then fixed with 4% paraformaldehyde. Following fixation, cells were stained with anti-ICAM-1 [MEM-111] (mouse IgG2a anti-human; abcam) and anti-VCAM1 [1.4C3] (mouse IgG1, K anti-human; abcam) primary antibodies at 1000×, and 100× dilutions respectively. Cells were then stained with Goat anti-Mouse IgG2a Cross-Adsorbed Secondary Antibody, Alexa Fluor 594 (Invitrogen) and Goat anti-Mouse IgG1 Cross-Adsorbed Secondary Antibody, Alexa Fluor 647 (Invitrogen) secondary antibodies. Nuclei were stained with Hoechst 3342 (Life Technologies).
(§4) Antibody binding was detected by fluorescence microscopy using a high content imager (Molecular Devices). Images were analyzed using MetaXpress 6 software to determine the integrated intensity per cell for each wavelength corresponding to ICAM-1 or VCAM-1.

HLMVEC = assay: META-rank score, composite of VCAM1, ICAM1 and IL6 in the HLMVEC model; type: cell-based, human; conditions: HLMVEC + TNF-α; lower score = more optimal; 20x HMDB / 5 mM
Experimental: The ability of single amino acids and combinations to simultaneously impact these phenotypes was measured by a META-rank score (Tables 17 and 18). META-rank score is a composite measure that considers the optimal impact on all 3 phenotypes (e.g. decrease VCAM1, ICAM1, and IL6) in the HLMVEC model.

ICAM-1 = ICAM-1 cell integrated intensity in HLMVEC treated with TNF-α (immunofluorescence); type: cell-based, human; conditions: for ICAM-1 Cell Integrated Intensity Median: HLMVEC + 0.5 ng/mL TNF-α, 24 h, amino acids 20x HMDB, Nac/Cit/Car 5 mM as bracketed
Experimental: as §1, §2, §3, §4

TNFα = assay: LPS-induced TNF-α secretion in primary human monocyte-derived macrophages (ELISA); type: cell-based; conditions: for TNF-α Measurements Mean: LPS, baseline subtracted
Experimental: (§5) Primary human PMBC derived macrophages were seeded on day 0 at 3.0×10^4 cells per well in 96-well microplates (ThermoFisher) in Dulbecco's Modified Eagle Medium (DMEM) (Gibco) supplemented with penicillin-streptomycin (Hyclone) and 10% heat inactivated fetal bovine serum (HI-FBS) (Atlanta Bio) and incubated overnight at 37° C., 5% CO2. On day 1, cells were washed once with 150 μl per well DPBS (Gibco) and treated with 75 μl of: • a. […] The same medium described above with one amino acid at various concentrations including complete dropout. […] On day 3, the supernatant was collected and immediately frozen in −80° C. freezer. Cells were washed once with 150 μl DPBS and viability was assessed using the WST-8 Cell Proliferation Cytotoxicity Assay (Dojindo). […] Protein levels in supernatant samples were analyzed by ELISA for IL-6 and TNFα using commercially available kits (R&D Systems) according to manufacturer-supplied protocols.

IL-6 [2] = assay: LPS-induced IL-6 secretion in primary human monocyte-derived macrophages (ELISA); type: cell-based; set-up: Donor 1 IL-6 Measurements Mean: unit not given here; conditions: LPS, baseline subtracted
Experimental: as §5

[3] = 0.5 ng/mL TNF-α, amino acids at 20× HMDB, 24 hours

## N=C(N)NCCC[C@H](N)C(=O)O [Arg]
IL-6 [1]
  Secreted IL6 Median: −0.224
VCAM-1
  VCAM-1 Cell Integrated Intensity Median: −0.001
HLMVEC
  Metarank (Table 17): 19
ICAM-1
  ICAM-1 Cell Integrated Intensity Median: −0.046

## NC(=O)CC[C@H](N)C(=O)O [Gln]
IL-6 [1]
  Secreted IL6 Median: 0.043
VCAM-1
  VCAM-1 Cell Integrated Intensity Median: 0.372
HLMVEC
  Meta-Rank (Table 18): 29
  Metarank (Table 17): 28
ICAM-1
  ICAM-1 Cell Integrated Intensity Median: 0.237

## NCC(=O)O [Gly, glycine]
IL-6 [1]
  Secreted IL6 Median: −0.010
VCAM-1; [3]
  VCAM-1 expression in HLMVEC: greatly reduced
VCAM-1
  VCAM-1 Cell Integrated Intensity Median: −0.298
HLMVEC
  Meta-Rank (Table 18): 3
  Metarank (Table 17): 26
ICAM-1; [3]
  TNFα induced ICAM-1 expression levels in HLMVEC: reduced levels of ICAM-1 expression to a lesser extent
ICAM-1
  ICAM-1 Cell Integrated Intensity Median: −0.261

## N[C@@H](Cc1c[nH]cn1)C(=O)O [His]
IL-6 [1]
  Secreted IL6 Median: −0.198
VCAM-1
  VCAM-1 Cell Integrated Intensity Median: 0.109
HLMVEC
  Meta-Rank (Table 18): 18.5
  Metarank (Table 17): 22
ICAM-1
  ICAM-1 Cell Integrated Intensity Median: 0.084

## CC[C@H](C)[C@H](N)C(=O)O [Isoleucine]
TNFα; Donor 1, Conc. 66 μM (baseline)
  TNF-α Measurements Mean: 0
TNFα; Donor 1, Conc. 1328 μM
  TNF-α Measurements Mean: −42.68
TNFα; Donor 1, Conc. 3320 μM
  TNF-α Measurements Mean: −96.3
TNFα; Donor 1, Conc. 6639 μM
  TNF-α Measurements Mean: −40.95
TNFα; Donor 2, Conc. 66 μM (baseline)
  TNF-α Measurements Mean: 4.74E−15
TNFα; Donor 2, Conc. 1328 μM
  TNF-α Measurements Mean: 2.919
TNFα; Donor 2, Conc. 3320 μM
  TNF-α Measurements Mean: 10.26
TNFα; Donor 2, Conc. 6639 μM
  TNF-α Measurements Mean: 19.26
TNFα; Donor 2, Two Way ANOVA Dunnett
  effect on LPS-induced TNF-α secretion: increased
TNFα; Donor 3, Conc. 66 μM (baseline)
  TNF-α Measurements Mean: −2.4E−15
TNFα; Donor 3, Conc. 1328 μM
  TNF-α Measurements Mean: −6.23
TNFα; Donor 3, Conc. 3320 μM
  TNF-α Measurements Mean: 3.309
TNFα; Donor 3, Conc. 6639 μM
  TNF-α Measurements Mean: −1.66
IL-6 [2]; Conc. 66 μM (baseline)
  Donor 1 IL-6 Measurements Mean: 0
  Donor 2 IL-6 Measurements Mean: 0
IL-6 [2]; Conc. 1328 μM
  Donor 1 IL-6 Measurements Mean: 25.98
  Donor 2 IL-6 Measurements Mean: −2.318
  Donor 3 IL-6 Measurements Mean: −28.9897
IL-6 [2]; Conc. 3320 μM
  Donor 1 IL-6 Measurements Mean: −15.8843
  Donor 2 IL-6 Measurements Mean: 2.305
  Donor 3 IL-6 Measurements Mean: 0
IL-6 [2]; Conc. 6639 μM
  Donor 1 IL-6 Measurements Mean: −218.332
  Donor 2 IL-6 Measurements Mean: −1.774
  Donor 3 IL-6 Measurements Mean: −16.3663
IL-6 [2]; Conc. 66 μM
  Donor 3 IL-6 Measurements Mean: −6.69

## CC(C)C[C@H](N)C(=O)O [Leu]
IL-6 [1]
  Secreted IL6 Median: −0.491
VCAM-1
  VCAM-1 Cell Integrated Intensity Median: 0.125
HLMVEC
  Meta-Rank (Table 18): 20
  Metarank (Table 17): 7
ICAM-1
  ICAM-1 Cell Integrated Intensity Median: 0.086
